Assay results: patent US20150079000A1, “Labelled Quinoxaline Derivatives as Multimodal Radiopharmaceuticals and Their Precursors” (INSTITUT NATIONAL DE LA SANTET DE LA RECHERCHE MEDICALE, priority 2012, published 2015)

Legend:
[1] = octanol/water (PBS buffer) partition coefficient (log D); assay type: physicochemical
[2] = radiochemical stability of the radiotracer after preparation; assay type: physicochemical
[3] = system: B16BL6 tumour; test: PET imaging in B16BL6 tumour bearing mice; assay type: in vivo, C57BL/6J mice; settings: 1 h p.i., day-15
Procedure: All our studies were performed in accordance with French and European Economic Community (86-609, EEC) guidelines for care of laboratory animals. Protocols were performed under the authorization of the French Direction des Services Veterinaires (authorization no. CE 86-12). Male C57BL/6J mice were originating from Charles River laboratories and maintained at 21° C. with a 12 h/12 h light/dark cycle, fed with a breeding diet (diet A04 from Safe, Villemoisson, France) and received water ad libitum. For transplantation B16BL6 cell suspension were grown in a monolayer culture to confluence, after which cells were trypsinized, washed with phosphate buffer saline (PBS) and they were resuspended in PBS. Mice were anesthetized by isoflurane (4% for induction and 2±0.5% for maintaining in oxygen flux) inhalation. The primary tumour model was induced by subcutaneous injection of 3×10^5 melanoma B16B16 cells in 0.1 mL on the right shoulder of mice.
Whole-body PET scans were acquired 1 h after bolus injection of […] of the appropriate [^18F]-compound in a volume of 0.15 ml via the tail vein. Mice were anesthetized by intraperitoneal (i.p.) administration (200 μL/mouse) of a ketamine-xylazine mixture in saline: ketamine (100 mg/kg, Imalgene™, Rhône Mérieux, Lyon, France) and xylazine (10 mg/kg, Rompun™, Bayer, France) before radiotracer injection and imaged by using a small-animal PET device, eXplore Vista microPET instrument (GE Healthcare). PET images were acquired by using static mode during 20 min. The acquired data were reconstructed using the 2-Dimensional ordered-subsets expectation maximization (OSEM) algorithm and corrected from decay, scatter and randoms. No corrections were applied for partial volume or attenuation.
Regional tracer uptake was quantified by standard region-of-interest (ROI) analysis with eXplore Vista software package. A manual 2D-ROI was drawn around the tumour in each slice where tumour was visible, and on several subsequent coronal planes containing muscle tissue at the forelimb. Results are expressed by percentage of injected dose per gram of tissue (% ID/g).
PET imaging was performed 1 h post injection of tracers in B16BL6 tumour bearing mice at day-15 after tumours cell inoculation.

[4] = system: melanoma B16F0 tumours; test: In vivo scintigraphic imaging of [125I]-labelled compounds; design: species or system C57BL/6J mice; settings: planar scintigraphy
Source text: C57BL/6J male mice (6-8 weeks old) were obtained from Charles River (l'Arbresle, France) and the B 16F0 syngenic melanoma from ATCC (no. CRL-6322). Primary melanoma model was induced by subcutaneous injection of B 16F0 murine melanoma cells in C57BL/6J mice. B 16F0 melanoma cell cultures were maintained as monolayers in Dulbecco's Modified Eagle's Medium (DMEM)/Glutamax (Invitrogen, Cergy Pontoise, France) supplemented with 10% fetal calf serum (Sigma, Saint Quentin Fallavier, France), 1% vitamins (Invitrogen, Cergy-Pontoise, France), 1 mM sodium pyruvate (Invitrogen), 1% non essential amino acids (Invitrogen), and 4 μg/mL of gentamycin base (Invitrogen). Cells were grown at 37° C. in a humidified incubator containing 5% CO2. For transplantation, cells in exponential growth phase were trypsinized, washed with phosphate buffer saline (PBS), and resuspended in PBS. C57BL/6J mice anesthetized by isoflurane (2%) inhalation were inoculated with 3×10^5 melanoma B16F0 cells in 0.1 mL of PBS by subcutaneous injection on the right flank.
In vivo scintigraphic imaging protocol was submitted and approved by the french regional ethical animal use committee (CEMEA, Auvergne, authorization no. CE18-09, 2010). Scintigraphic imaging of radioiodinated compounds in mice was performed using a gamma camera dedicated to small animal imaging (γIMAGER, Biospace Mesures, Paris, France). This camera consists of a R 3292 Hamamatsu position-sensitive photomultiplier having a continuous 4 mm thick×120 mm diameter CsI (Na) crystal leading to a 10 cm field of view. For ^125I imaging, the camera was equipped with parallel-hole collimator 1.8/0.2/20 (hole diameter/septum thickness/height in mm). All the acquisitions were performed with a 15% window centered on the 35 keV peak of ^125I.
On day 14 after tumour implantation, each [^125I]-labelled compound was administered intravenously via the tail vein with 3.7 MBq/mouse (range 3-8 animals/compounds). The injected activity to each mouse was also determined from scintigraphic imaging of the syringe before and after the injection of the radiotracer. At different times after administration (1 h, 3 h, 6 h, 24 h, 72 h, 5 d, 7 d, 10 d and 14 d), mice were anaesthetized by i.p. administration (200 μL/mouse) of a ketamine-xylazine mixture in saline: ketamine (100 mg/kg, Imalgene, Rhône Merieux, Lyon, France) and xylazine (10 mg/kg, Rompun, Bayer, France). A 10 min duration image was acquired on anesthetized mice placed in prone position over the collimator of the camera. Reproducibility in animal positioning for the serial images was achieved using a graduated reference grid.
Quantitative analysis of scintigraphic scans was performed using the GAMMAVISION+ software (Biospace Mesures, Paris, France). Regions of interest (ROIs) were manually drawn around the tumour, the whole body area, the bladder, the eyes, the submaxillary and thyroid glands and the controlateral muscle which was chosen as background. For each ROI, total activity, min and max pixel values, ROI size (in mm^2), average activity per mm^2 and standard deviation were obtained. These values were normalized to the injected activity. For the tumour, the activity was also normalized to the tumour weight as previously described (Miot-Noirault, Cancer biotherapy & radiopharmaceuticals, 24 (2009) 629-636) and expressed as percentage of injected dose per gram of tumour (% ID/g).

SMILES: CCN(CCNC(=O)c1cnc2cc(I)ccc2n1)Cc1cn(CC[18F])nn1 [[^18F](7)]
- octanol/water (PBS buffer) partition coefficient (log D) [1]: 2.22±0.03
- radiochemically stable at room temperature after preparation [2]: at least 6 h
- muscles activity [3]: 0.84 % ID/g
- tumour uptake [3]: 14.55 % ID/g
- tumour/muscle ratio [3]: 17.41

SMILES: CCN(CCNC(=O)c1cnc2cc([125I])ccc2n1)CCOCCOCCOCCOCCOCCOCCOCCF [[^125I]5]
- % ID/g (tumour) ([4]; 1 h after i.v. injection): 6.8 ± 1.8 % ID/g
- % ID/g (tumour) ([4]; 3 h after i.v. injection): 7.8 ± 1.5 % ID/g
- % ID/g (tumour) ([4]; 6 h after i.v. injection): 7.2 ± 1.1 % ID/g
- % ID/g (tumour) ([4]; 24 h after i.v. injection): 6.8 ± 1.7 % ID/g
- % ID/g (tumour) ([4]; 72 h after i.v. injection): 3.8 ± 0.7 % ID/g
- % ID/g (tumour) ([4]; 5 d after i.v. injection): 2.7 ± 0.3 % ID/g
- % ID/g (tumour) ([4]; 7 d after i.v. injection): 1.5 ± 0.2 % ID/g
- % ID/g (tumour) ([4]; 10 d after i.v. injection): 0.8 ± 0.3 % ID/g
- % ID/g (tumour) ([4]; 14 d after i.v. injection): 0.3 ± 0.01 % ID/g
